Assay results from patent US9402398B2, “Herbicidal compounds” (SYNGENTA PARTICIPATIONS AG, priority 2012, dated 2016).

Assays:
Type in all cases: in vivo
Setaria faberi (SETFA) [1] = experiment: Herbicidal glasshouse test, pre-emergence; details: pre-emergence (sprayed after cultivation for one day), 1000 g/h, evaluated after 13 days
Method: (§1) Seeds of a variety of test species are sown in standard soil in pots (Alopecurus myosuroides (ALOMY), Setaria faberi (SETFA), Echinochloa crus-galli (ECHCG), Solanum nigrum (SOLNI), Amaranthus retoflexus (AMARE), Ipomoea hederacea (IPOHE)). After cultivation for one day (pre-emergence) or after 8 days cultivation (post-emergence) under controlled conditions in a glasshouse (at 24/16° C., day/night; 14 hours light; 65% humidity), the plants are sprayed with an aqueous spray solution derived from the formulation of the technical active ingredient in acetone/water (50:50) solution containing 0.5% Tween 20 (polyoxyethelyene sorbitan monolaurate, CAS RN 9005-64-5). Compounds are applied at 1000 g/h. The test plants are then grown in a glasshouse under controlled conditions in a glasshouse (at 24/16° C., day/night; 14 hours light; 65% humidity) and watered twice daily. After 13 days for pre and post-emergence, the test is evaluated for the percentage damage caused to the plant. The biological activities are shown in the following table on a five point scale (5=80-100%; 4=60-79%; 3=40-59%; 2=20-39%; 1=0-19%).

[2] = tested on: Ipomoea hederacea (IPOHE); experiment: Herbicidal glasshouse test, pre-emergence; details: pre-emergence (sprayed after cultivation for one day), 1000 g/h, evaluated after 13 days
Method: as §1

Solanum nigrum (SOLNI) [3] = experiment: Herbicidal glasshouse test, pre-emergence; details: pre-emergence (sprayed after cultivation for one day), 1000 g/h, evaluated after 13 days
Method: as §1

[4] = tested on: Alopecurus myosuroides (ALOMY); experiment: Herbicidal glasshouse test, pre-emergence; details: pre-emergence (sprayed after cultivation for one day), 1000 g/h, evaluated after 13 days
Method: as §1

[5] = tested on: Echinochloa crus-galli (ECHCG); experiment: Herbicidal glasshouse test, pre-emergence; details: pre-emergence (sprayed after cultivation for one day), 1000 g/h, evaluated after 13 days
Method: as §1

[6] = tested on: Amaranthus retoflexus (AMARE); experiment: Herbicidal glasshouse test, pre-emergence; details: pre-emergence (sprayed after cultivation for one day), 1000 g/h, evaluated after 13 days
Method: as §1

Setaria faberi (SETFA) [7] = experiment: Herbicidal glasshouse test, post-emergence; details: post-emergence (sprayed after 8 days cultivation), 1000 g/h, evaluated after 13 days
Method: as §1

[8] = tested on: Ipomoea hederacea (IPOHE); experiment: Herbicidal glasshouse test, post-emergence; details: post-emergence (sprayed after 8 days cultivation), 1000 g/h, evaluated after 13 days
Method: as §1

Solanum nigrum (SOLNI) [9] = experiment: Herbicidal glasshouse test, post-emergence; details: post-emergence (sprayed after 8 days cultivation), 1000 g/h, evaluated after 13 days
Method: as §1

[10] = tested on: Alopecurus myosuroides (ALOMY); experiment: Herbicidal glasshouse test, post-emergence; details: post-emergence (sprayed after 8 days cultivation), 1000 g/h, evaluated after 13 days
Method: as §1

[11] = tested on: Echinochloa crus-galli (ECHCG); experiment: Herbicidal glasshouse test, post-emergence; details: post-emergence (sprayed after 8 days cultivation), 1000 g/h, evaluated after 13 days
Method: as §1

[12] = tested on: Amaranthus retoflexus (AMARE); experiment: Herbicidal glasshouse test, post-emergence; details: post-emergence (sprayed after 8 days cultivation), 1000 g/h, evaluated after 13 days
Method: as §1

Structure (SMILES) | percentage damage caused to the plant, five point scale, PRE Application SETFA (Setaria faberi (SETFA) [1]) | percentage damage caused to the plant, five point scale, PRE Application IPOHE [2] | percentage damage caused to the plant, five point scale, PRE Application SOLNI (Solanum nigrum (SOLNI) [3]) | percentage damage caused to the plant, five point scale, PRE Application ALOMY [4] | percentage damage caused to the plant, five point scale, PRE Application ECHCG [5] | percentage damage caused to the plant, five point scale, PRE Application AMARE [6] | percentage damage caused to the plant, five point scale, POST Application SETFA (Setaria faberi (SETFA) [7]) | percentage damage caused to the plant, five point scale, POST Application IPOHE [8] | percentage damage caused to the plant, five point scale, POST Application SOLNI (Solanum nigrum (SOLNI) [9]) | percentage damage caused to the plant, five point scale, POST Application ALOMY [10] | percentage damage caused to the plant, five point scale, POST Application ECHCG [11] | percentage damage caused to the plant, five point scale, POST Application AMARE [12]
Cc1cc(C(=O)Nc2nnnn2C)c(=O)n(-c2ccccc2)n1 [Compound 1.001] | 3 (3=40-59%) | 3 (3=40-59%) | 5 (5=80-100%) | 5 (5=80-100%) | 4 (4=60-79%) | 5 (5=80-100%) | 3 (3=40-59%) | 4 (4=60-79%) | 5 (5=80-100%) | 5 (5=80-100%) | 5 (5=80-100%) | 4 (4=60-79%)
Cc1cc(C(=O)Nc2nnnn2C)c(=O)n(-c2ccccc2C)n1 [Compound 1.003] | 3 (3=40-59%) | 4 (4=60-79%) | 4 (4=60-79%) | 2 (2=20-39%) | 5 (5=80-100%) | 5 (5=80-100%) | 3 (3=40-59%) | 5 (5=80-100%) | 5 (5=80-100%) | 4 (4=60-79%) | 5 (5=80-100%) | 5 (5=80-100%)
COc1ccccc1-n1nc(C)cc(C(=O)Nc2nnnn2C)c1=O [Compound 1.004] | 5 (5=80-100%) | 4 (4=60-79%) | 5 (5=80-100%) | 5 (5=80-100%) | 5 (5=80-100%) | 5 (5=80-100%) | 5 (5=80-100%) | 5 (5=80-100%) | 5 (5=80-100%) | 5 (5=80-100%) | 5 (5=80-100%) | 5 (5=80-100%)
Cc1cc(C(=O)Nc2nnnn2C)c(=O)n(-c2cc(Cl)cc(Cl)c2)n1 [Compound 1.005] | 5 (5=80-100%) | 5 (5=80-100%) | 5 (5=80-100%) | 5 (5=80-100%) | 5 (5=80-100%) | 5 (5=80-100%) | 5 (5=80-100%) | 5 (5=80-100%) | 5 (5=80-100%) | 5 (5=80-100%) | 5 (5=80-100%) | 5 (5=80-100%)
Cc1cc(C(=O)Nc2nnnn2C)c(=O)n(-c2ccc(Br)cc2)n1 [Compound 1.006] | 5 (5=80-100%) | 4 (4=60-79%) | 5 (5=80-100%) | 5 (5=80-100%) | 5 (5=80-100%) | 5 (5=80-100%) | 5 (5=80-100%) | 4 (4=60-79%) | 5 (5=80-100%) | 5 (5=80-100%) | 5 (5=80-100%) | 5 (5=80-100%)
Cc1cc(C(=O)Nc2nnnn2C)c(=O)n(-c2cccc(Br)c2)n1 [Compound 1.007] | 5 (5=80-100%) | 3 (3=40-59%) | 5 (5=80-100%) | 5 (5=80-100%) | 5 (5=80-100%) | 5 (5=80-100%) | 5 (5=80-100%) | 5 (5=80-100%) | 5 (5=80-100%) | 5 (5=80-100%) | 5 (5=80-100%) | 5 (5=80-100%)
C=Cc1ccc(-n2nc(C)cc(C(=O)Nc3nnnn3C)c2=O)cc1 [Compound 1.008] | 5 (5=80-100%) | 2 (2=20-39%) | 5 (5=80-100%) | 5 (5=80-100%) | 4 (4=60-79%) | 5 (5=80-100%) | 5 (5=80-100%) | 5 (5=80-100%) | 5 (5=80-100%) | 5 (5=80-100%) | 5 (5=80-100%) | 5 (5=80-100%)
CCOc1ccc(-n2nc(C)cc(C(=O)Nc3nnnn3C)c2=O)cc1 [Compound 1.010] | 5 (5=80-100%) | 4 (4=60-79%) | 5 (5=80-100%) | 5 (5=80-100%) | 5 (5=80-100%) | 5 (5=80-100%) | 5 (5=80-100%) | 5 (5=80-100%) | 5 (5=80-100%) | 5 (5=80-100%) | 5 (5=80-100%) | 5 (5=80-100%)
CCc1ccc(-n2nc(C)cc(C(=O)Nc3nnnn3C)c2=O)cc1 [Compound 1.011] | 5 (5=80-100%) | 4 (4=60-79%) | 5 (5=80-100%) | 5 (5=80-100%) | 5 (5=80-100%) | 5 (5=80-100%) | 5 (5=80-100%) | 5 (5=80-100%) | 5 (5=80-100%) | 5 (5=80-100%) | 5 (5=80-100%) | 5 (5=80-100%)
Cc1cc(C(=O)Nc2nnnn2C)c(=O)n(-c2ccc(C#N)cn2)n1 [Compound 1.022] |  |  |  |  |  |  | 5 (5=80-100%) | 4 (4=60-79%) | 5 (5=80-100%) | 5 (5=80-100%) | 5 (5=80-100%) | 5 (5=80-100%)
